{"source": "patent US20190046467A1", "about": "“COMPOSITIONS AND METHODS FOR INHIBITING BIOFILM-FORMING BACTERIA” (priority 2015, published 2019)", "key": {"[1]": {"tested_on": "509=PAO1_Δ(mexAB-oprM)_Δ(mexCD-oprJ)_Δ(mexEF-oprN)_Δ(mexJK)_Δ(mexXY) mutant biofilms", "experiment": "MBEC biofilm killing assay (BacTiter-Glo), efflux pump deletion mutant 509", "format": "cell-based, Pseudomonas aeruginosa", "conditions": "triclosan 100 μM alone or with tobramycin 250 μg/mL; 6 hours treatment", "protocol": "(§1) The MBEC™ Assay is a high throughput screening assay that allows testing of the efficacy of antimicrobials against biofilms. The MBEC™ Assay's Biofilm Inoculator (referred above as “the lid”) consists of a plastic lid with 96 pegs and a corresponding base with 96 individual wells. Biofilms are grown on the pegs under batch conditions (no flow of nutrients into or out of an individual well) with gentle mixing. The established biofilm is then transferred to a new 96 well plate for antimicrobial efficacy testing. The assay design allows for the evaluation of different of microorganisms, simultaneous testing of multiple biocides at multiple concentrations with replicate samples, making it an efficient screening tool. (Innovotech website http://www.innovotech.ca/products_mbec.php)) […]\n(§2) Two milliliter overnight cultures of Pseudomonas aeruginosa mutants were grown in MHII medium shaking at 220 rpm at 37° C. […] Cell culture was diluted to a 0.001 absorbance at 600 nm in 10% Mueller-Hinton II medium (MHII) and used to inoculate the bottom of MBEC™ assay plates (Innovotech, Edmonton, Canada). […] Following a 5 minute rinse in MHII, lids were exposed to BacTiter-Glo™ (Promega) and luminescence read in a microtiter plate reader (EnVision® Multilabel Plate Reader, Perkin Elmer, Waltham, USA). […]"}, "[2]": {"tested_on": "Pseudomonas aeruginosa PAO1 fabI mutant biofilms", "experiment": "MBEC biofilm killing assay (BacTiter-Glo), fabI mutants", "format": "cell-based", "conditions": "triclosan 100 μM alone; 6 hours treatment", "protocol": "as §1\nTwo milliliter overnight cultures of Pseudomonas aeruginosa fabI mutants were grown in MHII medium shaking at 220 rpm at 37° C. […] Cell culture was diluted to a 0.001 absorbance at 600 nm in 10% Mueller-Hinton II medium (MHII) and used to inoculate the bottom of MBEC™ assay plates (Innovotech, Edmonton, Canada). […] Following a 5 minute rinse in MHII, lids were exposed to BacTiter-Glo™ (Promega) and luminescence read in a microtiter plate reader (EnVision® Multilabel Plate Reader, Perkin Elmer, Waltham, USA). […]"}, "[3]": {"tested_on": "509.5=PAO509 expressing triABC mutant biofilms", "experiment": "MBEC biofilm killing assay (BacTiter-Glo), mutant 509.5", "format": "cell-based, Pseudomonas aeruginosa", "conditions": "triclosan 100 μM alone or with tobramycin 250 μg/mL; 6 hours treatment", "protocol": "as §1, §2"}}}
{"smiles": "Oc1cc(Cl)ccc1Oc1ccc(Cl)cc1Cl", "note": "[triclosan, Triclosan]", "values": [{"measurement": "susceptibility of 509 mutant biofilms", "setting": "[1]", "result": "susceptible"}, {"measurement": "susceptibility of fabI mutant biofilms", "setting": "[2]", "result": "triclosan resistance"}, {"measurement": "percentage of 509.5 mutant biofilms killed", "setting": "[3]", "result": "around 50%"}]}
